{"source": "patent EP0592600B1", "about": "“PROTEINS S POLYPEPTIDES AND USES THEREOF” (THE SCRIPPS RESEARCH INSTITUTE, priority 1991, dated 1993)", "key": {"PS:C4BP complex [1]": {"biological_target": "T1, PS:C4BP complex (Homo sapiens, UniProt P04003+P20851)", "T1 construct": "Purified human C4BP was obtained from 5 liters (1) of human citrated plasma; from tissue; host or cells: human citrated plasma (C4BP); protein S per Schwarz et al", "T1 sequence (P04003 49-597)": "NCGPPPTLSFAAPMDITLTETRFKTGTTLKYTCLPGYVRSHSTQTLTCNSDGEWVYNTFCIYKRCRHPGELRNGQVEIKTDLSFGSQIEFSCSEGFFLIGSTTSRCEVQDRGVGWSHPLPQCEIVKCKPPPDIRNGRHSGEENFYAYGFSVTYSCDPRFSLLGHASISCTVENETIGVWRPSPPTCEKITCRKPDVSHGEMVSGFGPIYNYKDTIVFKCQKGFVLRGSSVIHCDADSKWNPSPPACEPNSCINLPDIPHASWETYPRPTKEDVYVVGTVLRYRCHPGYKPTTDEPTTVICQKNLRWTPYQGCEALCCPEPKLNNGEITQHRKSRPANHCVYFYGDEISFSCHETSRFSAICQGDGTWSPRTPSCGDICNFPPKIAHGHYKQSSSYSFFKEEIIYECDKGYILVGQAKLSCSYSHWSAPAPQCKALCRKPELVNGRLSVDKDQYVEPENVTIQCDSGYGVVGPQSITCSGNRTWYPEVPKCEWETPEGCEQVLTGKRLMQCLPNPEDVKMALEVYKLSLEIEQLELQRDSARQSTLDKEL", "T1 sequence (P20851 18-252)": "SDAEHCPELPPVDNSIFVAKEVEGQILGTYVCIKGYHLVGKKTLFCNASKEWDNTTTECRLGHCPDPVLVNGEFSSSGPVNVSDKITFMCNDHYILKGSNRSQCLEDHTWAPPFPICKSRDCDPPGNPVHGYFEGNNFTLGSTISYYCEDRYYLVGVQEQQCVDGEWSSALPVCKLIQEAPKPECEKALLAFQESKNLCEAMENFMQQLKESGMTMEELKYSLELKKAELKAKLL", "test": "Peptide Inhibition Assay: binding of b-PS to C4BP in solid phase", "protocol": "Each of the peptides produced as described in Example 1 and listed in Table 1 was analyzed for its ability to inhibit the binding of native protein S in liquid-phase to C4BP in solid-phase.\nMicrotiter wells of a 96 well plate were coated with 50 µl of 10 µg/ml purified C4BP in carbonate buffer (0.02 M Na2CO3, pH 9.0, 0.02% Na-Azide). After blocking with 10% BSA in TBS, 50 µl of different concentrations of peptides diluted in washing buffer (TBS, 0.2% BSA, 5mM CaCl, 0.02% Tween 20) were separately admixed to C4BP-coated wells. After 2 hours at room temperature, 50 µl of a solution of biotinylated protein S, were admixed to each well to form a second binding admixture having a final concentration of 2 µg/ml. The plate was agitated and the samples were incubated 1 hour at room temperature. The samples were discarded and the wells were washed 3 times with washing buffer. To each well, 50 µl of strepavidin-alkaline-phosphatase (1 µg/ml washing buffer) were admixed and allowed to incubate for 30 minutes at room temperature. The strepavidin-alkaline-phosphatase was then discarded and the wells were washed 6 times with washing buffer. The resulting optical densities of the reaction solutions were read as described before in Example 2C.\nResults of the assay are reported as percent inhibition of C4BP binding. Percent of inhibition of C4BP binding is defined as: I = 100% - 100 x (deltaT /deltaC ) [formula] • where I is expressed as a percent; and • where 100% = delta/min of the amount of b-PS which specifically bound to C4BP-coated wells in the absence of any competing PS-peptide; and • where deltaT = the change in absorbance (405 nm) in the presence of competing PS-peptide; and • where deltaC = the change in absorbance (405 nm) in the absence of competing PS-peptide."}, "PS:C4BP complex [2]": {"biological_target": "T1, PS:C4BP complex", "test": "Peptide inhibition of binding of b-C4BP to PS-coated wells", "protocol": "An alternative approach was used to test the ability of the peptides, PSP-loop and PSP-428K, in comparison with that seen with the PSP-12 peptide, in inhibiting the binding of C4BP to PS. For this assay, the microtiter wells were coated with purified PS diluted to a concentration of 10 µg/ml in carbonate-coating buffer as described above. The wells were maintained to allow the PS to bind to the well walls. After the maintenance period, the wells were blocked also as described above. The selected PSP peptides were separately admixed at various concentrations ranging from 0 - 500 µM with biotinylated-C4BP (b-C4BP) at a concentration of 1 µg/ml. The admixtures were maintained on a fluid phase plate for 2 hours at room temperature to form peptide-C4BP complexes.\nFifty µl of the complexed admixtures were separately admixed to the prepared C4BP-coated wells and maintained for 1 hour at room temperature. Thereafter, the plate was washed and processed for developing as described above."}, "PS:C4BP complex [3]": {"biological_target": "T1, PS:C4BP complex", "test": "Fluid-phase peptide inhibition of b-PS binding to C4BP, detected on anti-C4BP polyclonal antibody-coated plates", "protocol": "(§1) An alternative approach was used to test the ability of the peptides, PSP-loop, PSP-424K and PSP-428K, in comparison with that seen with the PSP-12 peptide, in inhibiting the binding of PS to C4BP, the result of which was detected on polyclonal antibody-coated plates. For this assay, C4BP, biotinylated-PS (b-PS) and PSP peptides were admixed together at the respective concentrations of 3 µg/ml, 0.6 µg/ml and at a range of 0 - 500 µM (V:V:V). The admixtures were maintained for 2 hours at room temperature on a fluid phase plate to allow the binding and/or inhibition thereof of PS to C4BP by the PS-derived peptides. After the maintenance period, 50 µl of the admixture were separately admixed to wells previously coated with 10 µg/ml of anti-C4BP IgG polyclonal antibody. The admixtures were maintained for 1 hour at room temperature to allow for the binding of C4BP to C4BP-antibody-coated plates. The binding of biotinylated complexes to the antibody-coated plates was detected as described in Example 5Aii."}, "PS:C4BP complex [4]": {"biological_target": "T1, PS:C4BP complex", "test": "Fluid-phase peptide inhibition of PS binding to b-C4BP, detected on MAb S-7-coated plates", "protocol": "as §1, with “monoclonal” for “polyclonal”, “biotinylated-C4BP (b-C4BP), PS” for “C4BP, biotinylated-PS (b-PS)”, “0.5” for “3”, “1.0” for “0.6”, “MAb S-7 (ATCC No. HB 80819).” for “anti-C4BP IgG polyclonal antibody.”, “MAb S-7-antibody-coated” for “C4BP-antibody-coated”"}, "C4b binding protein [5]": {"biological_target": "T2, C4b binding protein (human, UniProt P04003 49-597; P20851 18-252)", "T2 construct": "mature; The beta chain is added from general knowledge; Biotinylated (b-C4BP) in some assays; also called C4BP; purified human C4BP", "T2 sequence (looked up) 1": "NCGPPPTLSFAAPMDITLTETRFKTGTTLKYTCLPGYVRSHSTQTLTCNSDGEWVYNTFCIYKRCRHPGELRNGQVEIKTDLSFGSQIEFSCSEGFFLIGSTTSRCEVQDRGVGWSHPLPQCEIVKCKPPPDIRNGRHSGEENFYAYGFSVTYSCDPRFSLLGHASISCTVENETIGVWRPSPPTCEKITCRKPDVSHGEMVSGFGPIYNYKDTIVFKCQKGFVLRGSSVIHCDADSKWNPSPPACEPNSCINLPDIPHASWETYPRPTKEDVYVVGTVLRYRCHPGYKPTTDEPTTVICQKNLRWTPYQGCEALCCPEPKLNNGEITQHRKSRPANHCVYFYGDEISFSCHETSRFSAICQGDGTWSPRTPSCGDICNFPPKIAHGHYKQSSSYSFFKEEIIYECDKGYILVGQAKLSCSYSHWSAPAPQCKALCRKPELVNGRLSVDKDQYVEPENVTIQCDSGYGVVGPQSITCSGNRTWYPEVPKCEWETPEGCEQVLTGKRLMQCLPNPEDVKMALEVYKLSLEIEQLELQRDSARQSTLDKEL", "T2 sequence (looked up) 2": "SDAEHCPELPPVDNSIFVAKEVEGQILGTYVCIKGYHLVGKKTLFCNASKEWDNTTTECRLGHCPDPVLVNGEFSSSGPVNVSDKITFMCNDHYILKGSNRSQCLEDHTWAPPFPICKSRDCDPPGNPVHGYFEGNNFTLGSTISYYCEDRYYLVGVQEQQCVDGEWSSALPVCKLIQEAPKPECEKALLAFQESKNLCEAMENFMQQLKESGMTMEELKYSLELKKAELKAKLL", "test": "Competition ELISA, peptide preincubated with b-C4BP, PS-coated wells"}, "C4b binding protein [6]": {"biological_target": "T2, C4b binding protein", "test": "Fluid-phase competition of b-C4BP, PS and peptide; capture on MAb S-7"}, "C4b binding protein [7]": {"biological_target": "T2, C4b binding protein", "test": "Fluid-phase competition of C4BP, b-PS and peptide; capture on anti-C4BP polyclonal IgG"}}, "note": "Bridge positions count the residues as written; N and C are the ends. Ends that are not written are not given here. Peptide text beside a SMILES is read from it.", "data": [{"molecule": "CC[C@H](C)[C@@H]1NC(=O)[C@H](CO)NC(=O)[C@H](C)NC(=O)CNC(=O)[C@H](CCC(N)=O)NC(=O)[C@H](CCCCN)NC(=O)[C@H](CCSC)NC(=O)[C@H](CC(C)C)NC(=O)[C@H](CC(N)=O)NC(=O)[C@H](Cc2c[nH]c3ccccc23)NC(=O)[C@H](CO)NC(=O)[C@H](CCCNC(=N)N)NC(=O)[C@H]([C@@H](C)CC)NC(=O)[C@@H](N)CSSC[C@@H](C(N)=O)NC(=O)[C@H](Cc2c[nH]cn2)NC(=O)[C@H](CCCCN)NC(=O)[C@H](CC(N)=O)NC(=O)[C@H](CCC(N)=O)NC(=O)[C@H](CCCCN)NC(=O)[C@H](CCC(=O)O)NC(=O)[C@H](CCC(N)=O)NC(=O)[C@H]([C@@H](C)CC)NC(=O)[C@H]([C@@H](C)CC)NC(=O)[C@H](CCC(=O)O)NC(=O)[C@H](CCCCN)NC1=O", "note": "[PSP-loop] (H-CIRSWNLMKQGASIKEIIQEKQNKHC-NH2; disulfide 1-26; N-terminus assumed)", "values": [{"measurement": "peptide concentration that completely inhibits the binding of PS to C4BP", "setting": "PS:C4BP complex [1]; subsequent experiments", "result": "approximately 250 µM"}, {"measurement": "IC90", "setting": "PS:C4BP complex [2]", "result": 50, "unit": "µM"}, {"measurement": "IC90", "setting": "PS:C4BP complex [3]", "result": "~400", "unit": "µM"}, {"measurement": "IC90", "setting": "PS:C4BP complex [4]", "result": "~100", "unit": "µM"}]}, {"molecule": "CC[C@H](C)[C@H](NC(=O)CNC(=O)[C@@H](N)CO)C(=O)N[C@@H](CCCCN)C(=O)N[C@@H](CCC(=O)O)C(=O)N[C@H](C(=O)N[C@H](C(=O)N[C@@H](CCC(N)=O)C(=O)N[C@@H](CCC(=O)O)C(=O)N[C@@H](CCCCN)C(=O)N[C@@H](CCC(N)=O)C(=O)N[C@@H](CC(N)=O)C(=O)N[C@@H](CCCCN)C(=O)N[C@@H](Cc1c[nH]cn1)C(=O)N[C@@H](CS)C(N)=O)[C@@H](C)CC)[C@@H](C)CC", "note": "[PSP-12] (H-SGIKEIIQEKQNKHC-NH2; N-terminus assumed)", "values": [{"measurement": "inhibition at 800 µM", "setting": "PS:C4BP complex [1]; peptide concentration of 800 µM, read-out: percent inhibition of PS:C4BP complex formation", "result": 80, "unit": "%"}, {"measurement": "IC90", "setting": "PS:C4BP complex [2]; b-C4BP 1 µg/ml, PS-coated wells, peptide 0 - 500 µM, read-out: IC90", "result": "~250", "unit": "µM"}, {"measurement": "IC50", "setting": "PS:C4BP complex [2]; b-C4BP 1 µg/ml, PS-coated wells, peptide 0 - 500 µM, read-out: half-maximal inhibitory concentration (IC50)", "result": "~50", "unit": "µM"}, {"measurement": "IC50", "setting": "PS:C4BP complex [4]; b-C4BP 0.5 µg/ml, PS 1.0 µg/ml, peptide 0 - 500 µM", "result": "~50", "unit": "µM"}, {"measurement": "IC90", "setting": "PS:C4BP complex [4]; b-C4BP 0.5 µg/ml, PS 1.0 µg/ml, peptide 0 - 500 µM, read-out: IC90", "result": "~250", "unit": "µM"}]}, {"molecule": "CIRSWNLMKQGASIKEIIQEKQNKHC-NH2 (cysteine pairing not given here, also called loop peptide)", "note": "[PSP-loop]", "values": [{"measurement": "IC50", "setting": "C4b binding protein [5]", "result": "~15", "unit": "µM"}, {"measurement": "IC90", "setting": "C4b binding protein [5]", "result": 50, "unit": "µM"}, {"measurement": "IC50", "setting": "C4b binding protein [6]", "result": "~35", "unit": "µM"}, {"measurement": "IC50", "setting": "C4b binding protein [7]", "result": "~40", "unit": "µM"}]}]}
